Data: the NIST ThermoML archive (doi:10.1021/je300958c)

Test: relative permittivity at zero frequency (dimensionless)
Conditions: 101.33 kPa, Liquid, impedance/gain phase analyzer

N#CCCCCCC#N [heptanedinitrile]
Conditions	relative permittivity at zero frequency
248.15 K	36.21
250.65 K	35.82
253.15 K	35.44
255.65 K	35.06
258.15 K	34.7
260.65 K	34.35
263.15 K	33.99
265.65 K	33.65
268.15 K	33.31
270.65 K	32.98
273.15 K	32.66
275.65 K	32.36
278.15 K	32.04
280.65 K	31.73
283.15 K	31.43
285.65 K	31.14
288.15 K	30.86
290.65 K	30.57
293.15 K	30.28
295.65 K	30
298.15 K	29.71
300.65 K	29.45
303.15 K	29.18
305.65 K	28.92
308.15 K	28.67
310.65 K	28.42
313.15 K	28.17
315.65 K	27.94
318.15 K	27.68
320.65 K	27.46
323.15 K	27.23
325.65 K	27
328.15 K	26.77
330.65 K	26.56
333.15 K	26.32

N#CCCCCC#N [hexanedinitrile]
Conditions	relative permittivity at zero frequency
278.15 K	34.7
280.65 K	34.35
283.15 K	34.01
285.65 K	33.67
288.15 K	33.36
290.65 K	33.04
293.15 K	32.73
295.65 K	32.41
298.15 K	32.12
300.65 K	31.83
303.15 K	31.53
305.65 K	31.26
308.15 K	30.96
310.65 K	30.67
313.15 K	30.38
315.65 K	30.09
318.15 K	29.8
320.65 K	29.5
323.15 K	29.22
325.65 K	28.94
328.15 K	28.69
330.65 K	28.46
333.15 K	28.21
335.65 K	27.98
338.15 K	27.73
340.65 K	27.52
343.15 K	27.3
345.65 K	27.09
348.15 K	26.83
350.65 K	26.6
353.15 K	26.4

N#CCCC#N [butanedinitrile]
Conditions	relative permittivity at zero frequency
333.15 K	56.09
335.65 K	55.46
338.15 K	54.85
340.65 K	54.29
343.15 K	53.68
345.65 K	53.11
348.15 K	52.52
350.65 K	51.95
353.15 K	51.36
355.65 K	50.81
358.15 K	50.28
360.65 K	49.73
363.15 K	49.18
365.65 K	48.66
368.15 K	48.14
370.65 K	47.63
373.15 K	47.11

N#CCCCC#N [pentanedinitrile]
Conditions	relative permittivity at zero frequency
248.15 K	40.78
250.65 K	40.45
253.15 K	40.08
255.65 K	39.78
258.15 K	39.42
260.65 K	39.08
263.15 K	38.74
265.65 K	38.4
268.15 K	38.1
270.65 K	37.78
273.15 K	37.44
275.65 K	37.16
278.15 K	36.83
280.65 K	36.56
283.15 K	36.27
285.65 K	35.97
288.15 K	35.71
290.65 K	35.41
293.15 K	35.14
295.65 K	34.87
298.15 K	34.6
300.65 K	34.33
303.15 K	34.04
305.65 K	33.83
308.15 K	33.59
310.65 K	33.35
313.15 K	33.13
315.65 K	32.87
318.15 K	32.67
320.65 K	32.44
323.15 K	32.21

N#CCCCCCCC#N [octanedinitrile]
Conditions	relative permittivity at zero frequency
273.15 K	28.23
275.65 K	28
278.15 K	27.77
280.65 K	27.52
283.15 K	27.29
285.65 K	27.06
288.15 K	26.82
290.65 K	26.6
293.15 K	26.36
295.65 K	26.16
298.15 K	25.94
300.65 K	25.75
303.15 K	25.55
305.65 K	25.32
308.15 K	25.11
310.65 K	24.94
313.15 K	24.74
315.65 K	24.55
318.15 K	24.37
320.65 K	24.2
323.15 K	24
325.65 K	23.8
328.15 K	23.63
330.65 K	23.47
333.15 K	23.3
